{
  "source": "patent US20250084040A1",
  "about": "“SUBSTITUTED HETEROCYCLES AS c-MYC TARGETING AGENTS” (Northwestern University, priority 2018, published 2025)",
  "key": {"[1]": {"system": "wild type and MYC knockout rat fibroblasts", "test": "Growth inhibition of MYC wild type versus MYC knockout rat fibroblasts", "format": "cell-based", "description": "We tested the top 13 active compounds in the first screen assay. […] More than half of the tested compounds show better growth inhibitory effect on MYC WT compared to MYC KO cells."}, "[2]": {"test": "In vitro metabolism, mouse S9 fraction", "format": "in vitro ADME", "method": "(§1) In vitro metabolism of NUCC-176242 and NUCC-176248 were tested using mouse liver microsomes and a mouse S9 fraction. (See FIG. 9)."}, "MV411 cells": {"system": "MV411 cells", "test": "AML xenograft model (MV411), combination with Ara-C", "format": "in vivo, mouse", "conditions": "AML mice xenograft model", "method": "Myc inhibitor combination treatment with Ara-C in AML xenograft model (FIG. 17). CB17 SCID mice were inoculated with MV411 cells at the density of 5×10^6 suspended in PBS and matrigel (1:1). The mice were randomized based on tumor volume into 6 different groups after the tumor reached ˜200 to 500 mm^3. The mice were treated either with vehicle, NUO31, NU975 alone or in combination with cytarabine (Ara-C). […] (See FIG. 17)."}, "PC12 cells": {"system": "PC12 cells", "test": "Cell viability / proliferation of PC12 cells (Myc independent)", "format": "cell-based", "method": "(§2) Proliferation Assay (FIG. 11). PC3 prostate cancer cell line with high Myc level and PC12 pheochromocytoma tumor cell line with non functional Max protein, which is not dependent on Myc-Max complex, were phased from ATCC. Cells were plated in 96 well plate at 1000 cells per well, and Myc inhibitor 361 at various concentrations was added to the cells next day. After 3 days of treatment, fresh medium with 361 were added again, and cell viability was measured by MTS assay at day 5 after the treatment. (See FIG. 11)."}, "MycCap cells": {"system": "MycCap cells", "test": "Cell viability of MycCap cells", "format": "cell-based"}, "[3]": {"test": "In vitro metabolism, mouse liver microsomes", "format": "in vitro ADME", "conditions": "% remaining of compound after 60 min treatment with mouse liver microsomes", "method": "as §1"}, "[4]": {"system": "PC3 prostate cancer cell line", "test": "Proliferation assay (MTS), PC3 prostate cancer cell line", "format": "cell-based", "conditions": "day 5", "method": "as §2"}, "MycCap tumor [5]": {"system": "MycCap tumor", "test": "MycCap FVB allograft model, combination with anti-PD-1 immunotherapy", "format": "in vivo, mouse", "conditions": "combination with Immunotherapy (anti-PD-1 antibody)", "method": "Myc inhibitor 361 combination with Immunotherapy (FIG. 16). MycCap FVB allograft model was treated with 361 (50 mg/kg) for two days, following by two days of anti-PD-1 antibody (100 ug/day), and kept this 4-day treatment cycle for 4 cycles. (See FIG. 16)."}, "[6]": {"system": "MYC transcriptional activity", "test": "MYC E-Box luciferase reporter assay", "format": "cell-based", "conditions": "MycCap Ebox-luc, 4 hours of treatment", "method": "To test the compounds, we evaluated the in silico hits in a MYC E-Box luciferase reporter assay to measure the effects of these compounds (referred to as Min-1 to Min-32) on MYC transcriptional activity. […] (See FIG. 2).\nMyc Ebox luciferase reporter assay (FIG. 12). MycCap cells stably expressing luciferase with CMV promoter (MycCap-luc) or c-Myc E-box-luciferase reporter (MycCap Ebox-luc) were plated at 10000 cells per well in 96 well white-wall plate. Serial dilutions of 361 were treated next day. At 4 hours of treatment, luminescence signal was determined immediately after adding 150 μg/ml of Luciferin to the well. (See FIG. 12)."}, "MycCap tumor [7]": {"system": "MycCap tumor", "test": "MycCap FVB allograft model", "format": "in vivo", "conditions": "mouse prostate cancer allograft model, intra-peritoneally", "method": "MycCap FVB allograft model (FIG. 15). FVB mice were inoculated with 1×10^6 of MycCap cells in 100 ul of matrigel subcutaneously on both flanks of the mice. When tumor size reached average size of 150 mm^3, mice were randomized based on tumor volume to 2 groups. Mice were administered with 50 mg/kg of 361 or vehicle (Veh) twice daily intra-peritoneally for two days. The treatment was suspended for 10 day, and initiated the treatment with a lower dose […] daily for another 9 days. Tumor size was measured twice a week during the experiment. (See FIG. 15)."}, "DNA damage": {"system": "DNA damage", "test": "rH2AX staining assay for DNA damage", "format": "cell-based", "method": "Min9 (NUCC-0176234) was also tested for its ability to cause DNA damage in an rH2AX staining assay. We would not expect cMYC-targeting agents to produce significant DNA damage. Compounds that act directly against DNA such as doxorubicin do however. […] (See FIG. 6)."}, "MYC/Max binding to DNA": {"target": "MYC/Max binding to DNA (Homo sapiens, UniProt P01106)", "sequence (P01106 whole entry)": "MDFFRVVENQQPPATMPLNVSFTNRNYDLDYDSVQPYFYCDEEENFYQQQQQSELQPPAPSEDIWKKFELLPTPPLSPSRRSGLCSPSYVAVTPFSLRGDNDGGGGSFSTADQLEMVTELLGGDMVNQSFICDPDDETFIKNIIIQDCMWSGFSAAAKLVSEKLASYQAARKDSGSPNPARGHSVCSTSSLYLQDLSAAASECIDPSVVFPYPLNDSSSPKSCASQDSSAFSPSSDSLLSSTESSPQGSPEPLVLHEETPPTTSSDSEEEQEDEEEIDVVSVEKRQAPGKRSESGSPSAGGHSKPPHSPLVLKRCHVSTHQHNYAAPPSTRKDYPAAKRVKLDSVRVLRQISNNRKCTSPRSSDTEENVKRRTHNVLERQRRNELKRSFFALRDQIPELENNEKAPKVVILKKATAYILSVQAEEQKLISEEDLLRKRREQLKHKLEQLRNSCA", "test": "Electrophoretic mobility shift assay (EMSA), MYC/Max binding to DNA", "method": "We also tested our best hit compound Min9 (NUCC-0176234) and newly synthesized analogs for effects of these compounds on MYC/Max binding to DNA in electrophoretic mobility shift assays (EMSAs). (See FIG. 5a and FIG. 5b). We expected the active compounds to impair MYC/Max binding to DNA. Several strucutural analogs of Min9 were tested over multiple doses for inhibiting MYC-DNA binding and we observed a dose-dependent inhibition. (See FIG. 5c)."}, "[8]": {"system": "cMYC wild-type (WT) and cMYC KO line", "test": "Cell viability, cMYC wild-type (WT) versus cMYC KO line", "format": "cell-based", "conditions": "cMYC WT vs cMYC KO line", "method": "Min9 (NUCC-0176234) was also tested in a cell viability assay against a cMYC wild-type (WT) and a cMYC KO line."}},
  "data": [
    {"smiles": "CCc1ccc(Oc2c(-c3ccc(OCc4ccc(Cl)cc4)cc3O)nn(C)c2C(F)(F)F)cc1", "note": "[NUCC-0176248]", "values": [
      {"measurement": "selectivity of growth inhibition, MYC WT compared to MYC KO cells", "setting": "[1]", "result": "high specificity"}
    ]},
    {"smiles": "CCc1ccc(Oc2c(-c3ccc(OCc4ccc(Cl)cc4)cc3O)n[nH]c2C(F)(F)F)cc1", "note": "[NUCC-0176242]", "values": [
      {"measurement": "metabolism by mouse S9 fraction", "setting": "[2]", "result": "significantly metabolism by the mouse S9 fraction versus NUCC-176248"}
    ]},
    {"smiles": "Cn1nc(C(F)(F)F)cc1-c1ccc(OCc2ccc(Cl)cc2)c(-c2ccc(Cl)c(C(F)(F)F)c2)c1O", "note": "[compound 975]", "values": [
      {"measurement": "anti-tumor effect with Ara-C", "setting": "MV411 cells", "result": "significant synergic anti-tumor effect"}
    ]},
    {"smiles": "CNC(=O)c1cc(-c2ccc(OCc3ccc(Cl)cc3)c(-c3cc(C(F)(F)F)cc(C(F)(F)F)c3)c2O)nn1C", "note": "[NUCC-0201224]", "values": [
      {"measurement": "IC50", "setting": "PC12 cells", "result": 11.6, "unit": "µM"},
      {"measurement": "IC50", "setting": "MycCap cells", "result": 1100, "unit": "nM"}
    ]},
    {"smiles": "Oc1c(-c2cc(C(F)(F)F)n[nH]2)ccc(OCCN2CCCC2)c1-c1cc(C(F)(F)F)cc(C(F)(F)F)c1", "note": "[NUCC-0201032]", "values": [
      {"measurement": "MLM % at 60 min", "setting": "[3]", "result": 30.5, "unit": "%"}
    ]},
    {"smiles": "Cn1nc(C(F)(F)F)cc1-c1ccc(OCc2ccc(Cl)cc2)c(-c2cccc(C#N)c2)c1O", "note": "[NUCC-0198399]", "values": [
      {"measurement": "MLM % at 60 min", "setting": "[3]", "result": 80.3, "unit": "%"}
    ]},
    {"smiles": "Cn1nc(C(F)(F)F)cc1-c1ccc(OCc2ccc(Cl)cc2)c(-c2cc(C(F)(F)F)cc(C(F)(F)F)c2)c1O", "note": "[compound 361]", "values": [
      {"measurement": "proliferation of Myc dependent cell line PC3", "setting": "[4]", "result": "specifically inhibits proliferation"},
      {"measurement": "tumor progression", "setting": "MycCap tumor [5]", "result": "significantly blocks tumor progression"},
      {"measurement": "c-Myc transcription activity", "setting": "[6]", "result": "inhibits c-Myc transcription activity as an early event before affecting cell viability"},
      {"measurement": "tumor volume", "setting": "MycCap tumor [7]", "result": "reduces tumor volume"}
    ]},
    {"smiles": "Oc1cc(OCc2ccc(Cl)cc2)ccc1-c1n[nH]c(C(F)(F)F)c1Oc1ccccc1Cl", "note": "[NUCC-0196342]", "values": [
      {"measurement": "MLM % at 60 min", "setting": "[3]", "result": 87.4, "unit": "%"}
    ]},
    {"smiles": "CCOC(=O)c1cc(-c2ccc(OCc3ccc(Cl)cc3)c(-c3cc(C(F)(F)F)cc(C(F)(F)F)c3)c2O)n[nH]1", "note": "[NUCC-0200972]", "values": [
      {"measurement": "MLM % at 60 min", "setting": "[3]", "result": 60.3, "unit": "%"}
    ]},
    {"smiles": "CCCCOc1ccc(-c2cc(C(F)(F)F)n[nH]2)c(O)c1-c1cc(C(F)(F)F)cc(C(F)(F)F)c1", "note": "[compound 031]", "values": [
      {"measurement": "anti-tumor effect with Ara-C", "setting": "MV411 cells", "result": "significant synergic anti-tumor effect"}
    ]},
    {"smiles": "Oc1c(-c2cc(C(F)(F)F)[nH]n2)ccc(OCc2ccc(Cl)cc2)c1-c1ccccc1Cl", "note": "[NUCC-0196363]", "values": [
      {"measurement": "MLM % at 60 min", "setting": "[3]", "result": 88.6, "unit": "%"}
    ]},
    {"smiles": "CCc1ccc(Oc2c[nH]nc2-c2ccc(OCc3cnn(-c4ccccc4)c3)cc2O)cc1", "note": "[NUCC-0176234]", "values": [
      {"measurement": "DNA damage", "setting": "DNA damage", "result": "essentially no DNA damage"},
      {"measurement": "inhibition of MYC/Max binding to DNA (in words)", "setting": "MYC/Max binding to DNA", "result": "prevent c-MYC/DNA binding"},
      {"measurement": "cell viability, WT line versus KO cells", "setting": "[8]", "result": "reduces cell viability much more in the WT line than the KO cells"}
    ]},
    {"smiles": "CCc1ccc(Oc2c(-c3ccc(OCc4ccncc4)cc3O)n[nH]c2C(F)(F)F)cc1", "note": "[NUCC-0176250]", "values": [
      {"measurement": "selectivity of growth inhibition, MYC WT compared to MYC KO cells", "setting": "[1]", "result": "great selectivity"}
    ]}
  ]
}
